Reference: patent publication US8362031B2, “Lonidamine analogues and treatment of polycystic kidney disease” (University of Kansas, priority 2004, dated 2013)

Test system: Salmonella Typhimurium TA 100
Assay: Ames test for mutagenicity (plate assay, colony count)
Details: 48 hours at 37° C.; for Ames test (+)S9 0.1 mg/pl. / Ames test (+)S9 1 mg/pl. / Ames test (+)S9 10 mg/pl.: (+)S9 mix; for Ames test (−)S9 0.1 mg/pl. / Ames test (−)S9 1 mg/pl. / Ames test (−)S9 10 mg/pl.: (−)S9 mix

SMILES	Ames test (+)S9 0.1 mg/pl.	Ames test (+)S9 1 mg/pl.	Ames test (+)S9 10 mg/pl.	Ames test (−)S9 0.1 mg/pl.	Ames test (−)S9 1 mg/pl.	Ames test (−)S9 10 mg/pl.
NNC(=O)c1nn(Cc2ccc(Cl)cc2Cl)c2cc(Cl)ccc12 [DD-MC-II, 6-chloro-1-(2,4-dichlorobenzyl)-1H-indazole-3-carboxylic acid hydrazide]	Pass	Pass	Pass	Pass	Pass	Pass
NNC(=O)c1nn(Cc2ccc(Cl)cc2Cl)c2cccnc12 [JWS-1-112, 1-(2,4-dichlorobenzyl)-1H-pyrazolo[4,3-b]pyridine-3-carboxylic acid hydrazide]	Pass	Pass	Pass	Pass	Fail	Fail
O=C(O)c1nn(Cc2ccc(Cl)cc2Cl)c2cnccc12 [JWS-1-132, 1-(2,4-dichlorobenzyl)-1H-pyrazolo[3,4-c]pyridine-3-carboxylic acid]	Pass	Pass	Pass	Pass	Pass	Pass
COC(=O)c1nn(Cc2ccc(Cl)cc2Cl)c2cc(C(F)(F)F)cnc12 [JWS-1-228, 1-(2,4-dichlorobenzyl)-6-trifluoromethyl-1H-pyrazolo[4,3-b]pyridine-3-carboxylic acid methyl ester]	Pass	Pass	Pass	Pass	Pass	Pass
O=C(O)c1nn(Cc2ccc(Cl)cc2Cl)c2cc(C(F)(F)F)cnc12 [JWS-1-230, 1-(2,4-dichlorobenzyl)-6-trifluoromethyl-1H-pyrazolo[4,3-b]pyridine-3-carboxylic acid]	Pass	Pass	Pass	Pass	Pass	Pass
NNC(=O)c1nn(Cc2ccc(Cl)cc2Cl)c2cc(C(F)(F)F)cnc12 [JWS-1-232, 1-(2,4-dichlorobenzyl)-6-trifluoromethyl-1H-pyrazolo[4,3-b]pyridine-3-carboxylic acid hydrazide]	Pass	Pass	Pass	Pass	Pass	Pass
NNC(=O)c1nn(Cc2ccc(Cl)cc2Cl)c2ccc(C(F)(F)F)cc12 [JWS-1-258, 1-(2,4-dichlorobenzyl)-5-trifluoromethyl-1H-indazole-3-carboxylic acid hydrazide]	Pass	Pass	Pass	Pass	Pass	Pass
O=C(O)c1nn(Cc2ccc(Cl)cc2Cl)c2ccc(C(F)(F)F)cc12 [JWS-1-260, 1-(2,4-dichlorobenzyl)-5-trifluoromethyl-1H-indazole-3-carboxylic acid]	Pass	Pass	Pass	Pass	Pass	Pass
O=C(O)/C=C/c1nn(Cc2ccc(Cl)cc2Cl)c2ccc(C(F)(F)F)cc12 [JWS-1-268, 3-[1-(2,4-dichlorobenzyl)-5-trifluoromethyl-1H-indazol-3-yl]-acrylic acid]	Pass	Pass	Pass	Pass	Pass	Pass
O=C(O)c1nn(Cc2ccc(F)cc2F)c2cc(Cl)ccc12 [JWS-1-284, 1-(2,4-difluorobenzyl)-6-chloro-1H-indazole-3-carboxylic acid]	Pass	Fail	Fail	Pass	Fail	Fail
O=C(O)/C=C/c1nn(Cc2ccc(F)cc2F)c2cc(C(F)(F)F)ccc12 [JWS-1-294, 3-[1-(2,4-difluorobenzyl)-6-trifluoromethyl-1H-indazol-3-yl]-acrylic acid]	Pass	Pass	Pass	Pass	Pass	Pass
O=C(O)/C=C/c1nn(Cc2ccc(F)cc2F)c2cc(Cl)ccc12 [JWS-1-298, 3-[1-(2,4-difluorobenzyl)-6-chloro-1H-indazol-3-yl]-acrylic acid]	Pass	Fail	Fail	Pass	Fail	Fail
COC(=O)c1nn(Cc2ccc(F)cc2F)c2ccc(C(F)(F)F)cc12 [JWS-1-300, 1-(2,4-difluorobenzyl)-5-trifluoromethyl-1H-indazole-3-carboxylic acid methyl ester]	Pass	Fail	Fail	Pass	Fail	Fail
NNC(=O)c1nn(Cc2ccc(F)cc2F)c2ccc(C(F)(F)F)cc12 [JWS-1-302, 1-(2,4-difluorobenzyl)-5-trifluoromethyl-1H-indazole-3-carboxylic acid hydrazide]	Pass	Pass	Fail	Pass	Pass	Pass
O=C(O)c1nn(Cc2ccc(F)cc2F)c2ccc(C(F)(F)F)cc12 [JWS-2-1, 1-(2,4-difluorobenzyl)-5-trifluoromethyl-1H-indazole-3-carboxylic acid]	Pass	Pass	Pass	Pass	Mar-	Fail
O=C(O)/C=C/c1nn(Cc2ccc(F)cc2F)c2ccc(C(F)(F)F)cc12 [JWS-2-10, 3-[1-(2,4-difluorobenzyl)-5-trifluoromethyl-1H-indazol-3-yl]-acrylic acid]	Pass	Pass	Pass	Pass	Pass	Pass
O=C(O)c1nn(Cc2ccc(F)cc2Cl)c2cc(C(F)(F)F)ccc12 [JWS-2-14, 1-(2-chloro-4-fluorobenzyl)-6-trifluoromethyl-1H-indazole-3-carboxylic acid]	Pass	Pass	Fail	Pass	Fail	Fail
COC(=O)c1nn(Cc2ccc(F)cc2Cl)c2cc(Cl)ccc12 [JWS-2-18, 1-(2-chloro-4-fluorobenzyl)-6-chloro-1H-indazole-3-carboxylic acid methyl ester]	Pass	Fail	Fail	Pass	Pass	Mar-
O=C(O)c1nn(Cc2ccc(F)cc2Cl)c2cc(Cl)ccc12 [JWS-2-20, 1-(2-chloro-4-fluorobenzyl)-6-chloro-1H-indazole-3-carboxylic acid]	Pass	Fail	Fail	Mar-	Fail	Fail
O=C(O)/C=C/c1nn(Cc2ccc(F)cc2Cl)c2cc(Cl)ccc12 [JWS-2-36, 3-[1-(2-chloro, 4-fluorobenzyl)-6-chloro-1H-indazol-3-yl]-acrylic acid]	Pass	Pass	Pass	Pass	Fail	Pass
O=C(O)/C=C/c1nn(Cc2ccc(F)cc2Cl)c2cc(C(F)(F)F)ccc12 [JWS-2-40, 3-[1-(2-chloro, 4-fluorobenzyl)-6-trifluoromethyl-1H-indazol-3-yl]-acrylic acid]	Pass	Pass	Pass	Pass	Pass	Mar-
O=C(O)/C=C/c1nn(Cc2ccc(Cl)cc2Cl)c2ncccc12 [RC-MC-65, 3-[1-(2,4-dichlorobenzyl)-1H-pyrazolo[3,4-b]pyridine-3-yl]-acrylic acid]	Pass	Fail	Fail	Pass	Fail	Fail
COC(=O)C=Cc1nn(Cc2ccc(Cl)cc2Cl)c2cc(C(F)(F)F)ccc12 [RC-MC-200]	Pass	Fail	Fail	Pass	Pass	Pass
NNC(=O)/C=C/c1nn(Cc2ccc(Cl)cc2Cl)c2cc(C(F)(F)F)ccc12 [RC-MC-205, 3-[1-(2,4-dichlorobenzyl)-6-trifluoromethyl-1H-indazol-3-yl]-acrylic acid hydrazide]	Pass	Fail	Fail	Pass	Fail	Mar-
